Source: patent US20120082626A1, “USE OF R-BAMBUTEROL AS INHALED MEDICAMENT AND COMBINATION THERAPIES FOR TREATMENT OF RESPIRATORY DISORDERS” (priority 2009, published 2012)
“Also recorded” adds a separate entry of the source.

What was measured:
[1] = tested on: OVA evoked asthma in sensitized guinea-pigs; assay: Relief of antigen-evoked asthma by inhalation after challenge in OVA sensitized guinea-pigs; type: in vivo; settings: nebulized drug inhaled after antigen challenge
Excerpt: In an embodiment of the invention, the ovalbumin (OVA) sensitized guinea-pigs were first challenged with nebulized antigen to evoke asthma, then the animals were allowed to inhale nebulized R-bambuterol or bambuterol. […] In a further embodiment of the invention, the sensitized guinea-pigs were first pretreated with nebulized R-bambuterol or bambuterol by inhalation. After three minutes, the same animals were challenged with nebulized antigen. […] The fast onset of action in the invention can also not be explained by Svenssion's in vitro metabolic study noted above that the dominate product is mono-carbamate bambuterol and litter terbutaline at initial phase., while the major amount of terbutaline will be formed at much later phase. (Svensson et al., 1988).

[2] = tested on: histamine evoked asthma in conscious guinea-pigs; assay: Histamine-evoked asthma in conscious guinea pigs after oral administration; type: in vivo, guinea pigs (Dunkin-Hartley strain); settings: for Latency: no collapse over 360 sec recorded as 360
Protocol: (§1) Test methods: Guinea pigs (Dunkin-Hartley strain, 200±30 g) were fasted overnight but given water ad libidum. The animals were restrained individually in a glass chamber and exposed to aerosol histamine generated by a nebulizer from a 0.2% aqueous solution of histamine under constant pressure at dose of 0.5 ml/min for a period of 15 sec. The animal was removed from the chamber, and its behavior was monitored. Assign of collapse and the latency time from exposure to collapse were recorded. Only the animals with latency time less than 120 sec, as an indication of sensitive to histamine, were chosen for later experiments. The animals chosen were allowed to recover completely by resting for 24 hours before experiments. R-bambuterol and racemic bambuterol hydrochloride were dissolved in saline and nublized in a nebulizer.
Comparison of the anti-asthma effects of R-bambuterol (R-BM) and bambuterol (RS-BM) administered by oral and by inhalation in conscious guinea pigs. Test methods: same as Example 1.
Study of dose-response: Same as Example 1, except the following: four hours before the exposure to aerosol histamine, animals were randomized into groups (n=8, equal male and female), and given R-bambuterol hydrochloride or racemic bambuterol hydrochloride in doses of 1.0, 2.0, 4.0 and 8.0 mg/kg, and vehicle control, orally via a stomach tube.

[3] = tested on: asthma evoked by intravenously administrated histamine; settings: anesthetized guinea pigs, intravenous histamine; cited from earlier work
[4] = tested on: histamine evoked asthma in conscious guinea-pigs; assay: Time course of anti-asthma effects after oral administration or inhalation; type: in vivo; settings: for No. of collapsed: n=8
Protocol: The time course of the anti-asthma effects of R-bambuterol (R-BM) and bambuterol (RS-BM) after administered by oral and by inhalation. Test Methods: same as example 1 except the following:
For orally administration, R-Bambuterol hydrochloride or racemic bambuterol hydrochloride at 4 and 8 mg/kg, and vehicle alone, were administered to the guinea pigs orally via a stomach tube. Exposure of treated animals to aerosol histamine (as above) was done at 1, 4 and 12 hours after R-bambuterol or bambuterol treatment. For each experimental group, there were a total of 8 animals with equal number in sex, and no repeated exposure was made for individual experimental animals.
For inhalation, R-Bambuterol hydrochloride or racemic bambuterol hydrochloride at 0.252 and 0.504 mg/kg, and vehicle alone, were nebulized and administered to the guinea pigs by inhalation. Exposure of drug treated animals to aerosol histamine (as above) was done at 1,4 and 12 hours after drug treatment. For each experimental group, there were a total of 8 animals with equal number in sex, and no repeated exposure was made for individual experimental animals.

[5] = tested on: bronchial and lung preparations; settings: in vitro; cited from earlier work
[6] = cited from earlier work
[7] = tested on: OVA evoked asthma in sensitized guinea pigs; assay: Airway resistance and dynamic pulmonary compliance after inhalation in OVA sensitized guinea pigs; type: in vivo; settings: for protection against asthma attack by antigen (OVA) challenge: pretreatment by inhalation about three minutes before OVA challenge; for change of Raw and Cdyn at resting state after inhalation: before OVA challenge
Protocol: Sensitization of animals: Ovalbumin (10 μg/ml) was injected into guinea-pigs subcutaneously and coincidentally with an intraperitoneal injection of B. pertussis vaccine. Identical injection of ovalbumin and adjuvant were made day 15 and 21 days later. On day 28th the animals were examined and used for studies.
Test Methods: The sensitized guinea pigs wer anaethetized. A cannula was inserted into the trachea. A plueral cannula was inserted into pleural space through the chest wall. Airway resistance (Raw) and dynamic pulmonary compliance (Cdyn) were measured by using the signals of intraplueral pressure, airflow and tidal volume.
The animals were restreined in closed chamber and nebulized R-bambuterol or S-bambuterol were inhaled at the dose of 126 μg/kg. After three minutes conditioning, the animals were then challenged with nebulized OVA to evoke asthma. Airway resistance (Raw) and dynamic pulmonary compliance (Cdyn) were measured before and after evoking asthma.

[8] = tested on: histamine evoked asthma in conscious guinea-pigs; assay: Protection against histamine-evoked asthma by inhaled drug in conscious guinea pigs; type: in vivo, guinea pigs (Dunkin-Hartley strain); settings: for Latency: no collapse over 360 sec recorded as 360
Protocol: as §1
Study of dose-response: One hours before the exposure to aerosol histamine, animals were randomized into groups (n=8, equal sex), and Nublized R-bambuterol hydrochloride or bambuterol hydrochloride in doses of 63, 126, 252 and 504 μg/kg, and vehicle control were inhaled by the animals via a mouth and nasal mask. The numbers of collapsed animal as a result of asthmatic reaction to aerosol histamine were counted, and the latency times were recorded. Both of these parameters were used as quantitative measurements of the protective effects of the treatments on bronchospasm evoked by aerosol histamine.

[9] = tested on: OVA evoked asthma in sensitized guinea pigs; assay: Drug tolerance to R-bambuterol induced by pretreatment; type: in vivo
Protocol: Animal sensitization and experiment methods were similar as discribed above. Briefly, animals were divided into three groups. R-bambuterol (8 mg/kg) or S-bamburerol (8 mg/kg) or 0.9% NaCL (control) were given orally in equal volum to each group seperatedly once a day for 7 consecutive days in order to induce drug tolerances. The Protection effects of same dosage of R-bambuterol against asthma attack induced by OVA challenge were evaluated by the changes of Airway resistance (Raw) and dynamic pulmonary compliance (Cdyn).

[10] = tested on: OVA evoked asthma in sensitized guinea pigs; assay: Airway resistance in OVA asthma attack after oral administration in sensitized guinea pigs; type: in vivo
Protocol: Sensitized animals were divided into Saline (control), S-Bambuterol and R-bambuterol groups. R or S bambuterol were administered by both inhalation by oral ([…]). Airway resistance (Raw) and dynamic pulmonary compliance (Cdyn) were measured at resting or during astham challenge by OVA. Animal preparation and experimental methods were similar as described previously.

[11] = oral, at maximum effective dose (R-BM 4.0, RS-BM 8.0 mg/Kg)
[12] = inhalation (R-BM 252 μg/kg, RS-BM 504 μg/kg), histamine 60 min after
[13] = inhalation (R-BM 252 μg/kg, RS-BM 504 μg/kg), histamine 240 min after
[14] = inhalation (R-BM 252 μg/kg, RS-BM 504 μg/kg), histamine 720 min after
[15] = oral (R-BM 4.0 mg/kg, RS-BM 8.0 mg/kg), histamine 60 min after
[16] = oral (R-BM 4.0 mg/kg, RS-BM 8.0 mg/kg), histamine 240 min after
[17] = oral (R-BM 4.0 mg/kg, RS-BM 8.0 mg/kg), histamine 720 min after
[18] = inhale, at maximum effective dose (R-BM 0.252, RS-BM 0.505 mg/Kg)
[19] = pretreated with the labelled substance 8 mg/kg orally once a day 7 days, then R-bambuterol, OVA challenge, n=8

With `CN(C)C(=O)Oc1cc(OC(=O)N(C)C)cc(C(O)CNC(C)(C)C)c1` (racemic) [bambuterol] the “relief of asthmatic symptoms after inhalation” value [1] was “immediately relieved within matter of tenths of seconds to a couple of minutes”, the “maximum effective dose required by oral (none of the histamine challenged animals collapsed)” value ([2]; oral) was 8 mg/kg and the Latency ([2]; oral 1.0 mg/Kg) was 151 ± 130 s. It also gave a Latency ([2]; oral 2.0 mg/Kg) of 227 ± 143 s, a Latency ([2]; oral 4.0 mg/Kg) of 299 ± 113 s and a Latency ([2]; oral 8.0 mg/Kg) of 360 ± 0 s. For the same compound, the “Animal collapsed (%)” value [2, 11] was 0%, the “Animal collapsed (number/group)” value [2, 11] was 0/8 and the “maximum effective dose required by oral (none of the histamine challenged animals collapsed)” value ([2]; oral, listed as RS-BM) was “Oral (8.0 ) mg/Kg”. The “bronchospasmolytic effects when inhaled” value [3] was “inactive and lack bronchospasmolytic effects”, the Latency [4, 12] was 360 ± 0 s and the No. of collapsed [4, 12] was 0/8. The Latency [4, 13] was 360 ± 0 s, the No. of collapsed [4, 13] was 0/8 and the Latency [4, 14] was 287 ± 136 s. The No. of collapsed [4, 14] was 2/8, the “maximum anti-asthmatic effects by inhalation faster than by oral administration” value ([4]; inhalation vs oral) was 4 h and the Latency [4, 15] was 260 ± 131 s. For the same compound, the No. of collapsed [4, 15] was 3/8, the Latency [4, 16] was 360 ± 0 s and the No. of collapsed [4, 16] was 0/8. The Latency [4, 17] was 360 ± 0 s, the No. of collapsed [4, 17] was 0/8 and the relaxation effects [5] was “no relaxation effects”. For the same compound, the “duration of blood concentration of active parent drug” value ([6]; after an oral administration) was “up to 24 hours”, the “concentration in lungs relative to plasma” value ([6]; after oral administration (Svensson 1991)) was roughly 20 times and the “amount needed relative to terbutaline to reach the same concentration of terbutaline in blood” value ([6]; given orally, on molar basis) was 5 times. The “tmax of terbutaline released from bambuterol later than tmax of terbutaline taken orally” value ([6]; oral (Olsson et al. 1984)) was “four”, the “time of maximum concentration (tmax)” value ([6]; oral) was “around one” and the “protection against asthma attack by antigen (OVA) challenge” value [7] was “significant anti-asthma effects”. The “dosage required for maximum anti-asthmatic effects (complete protection against histamine) by inhalation” value ([8]; inhalation) was 512 µg/kg, the “maximum effective dose required by inhalation” value ([8]; inhale) was “Inhale (0.505) mg/Kg” and the “Animal collapsed (%)” value [8, 18] was 0%. For the same compound, the “Animal collapsed (number/group)” value [8, 18] was 0/8, the Latency ([8]; inhaled 63 μg/Kg) was 42 ± 9 s and the Latency ([8]; inhaled 126 μg/Kg) was 85 ± 112 s. The Latency ([8]; inhaled 252 μg/Kg) was 209 ± 162 s, the Latency ([8]; inhaled 504 μg/Kg) was 360 ± 0 s and the “Oral:Inhale ratio of maximum effective dose” value ([8]; oral dose vs inhaled dose for maximum anti-asthmatic effect) was 16.

In the case of `CN(C)C(=O)Oc1cc(OC(=O)N(C)C)cc([C@H](O)CNC(C)(C)C)c1` [S-bambuterol], the “protection effects of R-bambuterol against asthmatic attack after pretreatment” value ([9]; group pretreated with the labelled substance) is reported as “significantly reduced”, the “Changes in Cdyn During asthma” value [9, 19] is reported as −0.25 ± 0.10 and the “Changes in Raw During asthma” value [9, 19] is reported as “+0.36 ± 0.23”. The “change of Raw and Cdyn in resting state” value ([10]; given orally) was “little changes in either Raw and Cdyn”, the “change in Raw / asthmatic response during the asthmatic attack by OVA” value ([10]; oral) was “significantly enhance the asthmatic response to OVA challenge than control; also recorded: significant increases in Raw; also recorded: significantly worsen the asthmatic response” and the “Changes in Airway resistance (Raw) at 4th min after OVA challenge” value ([10]; pretreated oral 4 m/kg, n=8) was 2.40 ± 0.96. For the same compound, the “Changes in Airway resistance (Raw) at 5th min after OVA challenge” value ([10]; pretreated oral 4 m/kg, n=8) was 2.41 ± 0.98, the “change of Raw and Cdyn at resting state after inhalation” value [7] was “increasing airway resistance and reducing pulmonary dynamic compliance; also recorded: significant increase in airway resistance (Raw) and decrease in pulmonary compliance (Cdyn)” and the “change of Raw and Cdyn at resting state after inhalation” value ([7]; listed as S-Bambuterol) was “significant increase in Raw and decrease in Cdyn”. For the same compound, the “collapse induced by inhalation per se” value ([7]; inhalation, sensitized guinea pigs) was “induced a collapes of a guinea pig”, the “protection against asthma attack by antigen (OVA) challenge” value [7] was “no such protection at all; also recorded: inactive in protectoin against asthma attack” and the “change of Raw and Cdyn during the asthma attack comparing to control” value ([7]; treated by inhalation) was “greater increase in airway resistance (Raw) and decrease in pulmonary compliance (Cdyn)”.
